Experimental data as given in US9066948B2, “Oxadiazolo[3,2-a]pyrimidines and thiadiazolo[3,2-a]pyrimidines” (THE UNITED STATES OF AMERICA AS REPRESENTED BY THE …, priority 2010, dated 2015).
Several values for one entry are separate records, joined by “and”; a condition that tells them apart may be missing. Equal entries are not always repeated. Where two headings read alike, the source gives them in different places. Bridge positions count the residues as written; N and C are the ends. Square brackets hold non-standard residues; d marks the D form. Peptide text beside a SMILES is read from it. hArg = N=C(N)NCCCC[C@H](N)C(=O)O; Mpa = O=C(O)CCS

Experiments:
purified αIIbβ3 = target: T1, purified αIIbβ3 (Homo sapiens, UniProt P05106+P08514); experiment: Extension of purified αIIbβ3 in nanodiscs by negative staining electron microscopy; conditions: for shift of nanodisc-integrin length (NIL) frequency distribution: 1 hour at room temperature, at highest doses majority of NIL values 18 to 23 nm
T1 construct: αIIbβ3 is purified from outdated single donor platelet concentrates obtained from the New York Blood Center; tissue New York Blood Center; host or cells: outdated single donor platelet concentrates
Experimental: In brief, the His-tagged membrane scaffold protein is prepared as a recombinant protein in E. coli and purified by Nickel affinity chromatography and anion exchange chromatography. Final assembly consists of solubilizing an equimolar mixture of 1,2-dimyristoyl-sn-glycero-3-phosphocholine and 1,2-dimyristoyl-sn-glycero-3-phospho-(1′-rac-glycerol) in octylglucoside and cholate and then adding the purified αIIbβ3. The detergents are removed with macroporous polymeric beads (Bio-Bead SM-2) and then the αIIbβ3 nanodiscs are separated from the empty nanodiscs by gel filtration.
αIIbβ3 nanodiscs are treated with eptifibatide, tirofiban, 2-ethyl-7-(piperazin-1-yl)-5H-[1,3,4]thiadiazolo-[3,2-a]pyrimidin-5-one of U.S. Ser. No. 12/514,286, or the compound of Example 27 of the current invention for 1 hour at room temperature at concentrations up to 100 μM for 2-ethyl-7-(piperazin-1-yl)-5H-[1,3,4]thiadiazolo-[3,2-a]pyrimidin-5-one (a compound claimed in U.S. Ser. No. 12/514,286) and at concentrations up to 10 μM for 2-amino-N-(3-(5-oxo-7-(piperazin-1-yl)-5H-[1,3,4]thiadiazolo[3,2-a]pyrimidin-2-yl)phenyl)acetamide of Example 27. Samples are loaded onto carbon-coated copper grids that are glow-discharged by a carbon coating unit (Edwards; Crowley, UK), and then stained with 2% uranyl acetate, followed by drying. Imaging of αIIbβ3 nanodiscs is performed using a JOEL JEM 100CX transmission electron microscope (Jeol Ltd; Tokyo, Japan) at 80 kV and magnifications of 33,000× and 50,000×. Individual nanodiscs containing αIIbβ3 are manually selected for analysis using Image J (NIH, Bethesda, Md.). The distance from the bottom of the nanodisc to the height of the αIIbβ3 complex (nanodisc-integrin length; NIL) is measured as an indicator of integrin extension. The frequency distribution of NIL values is then analyzed for untreated αIIbβ3 nanodiscs and αIIbβ3 nanodiscs in the presence of different compounds.

[1] = target: T2, HEK293 cells stably expressing normal human αVβ3 (Homo sapiens, UniProt P05106+P06756); experiment: αVβ3-mediated cell adhesion to vitronectin; assay type: cell-based; conditions: HEK293, n=4
T2 construct: expressed in transfected cells; host or cells: HEK293
Experimental: Washed platelets are prepared as per the primary screening assay, suspended in HBMT containing 1 mM MgCl2 (platelet adhesion to collagen) or 2 mM CaCl2/1 mM MgCl2 (platelet adhesion to fibrinogen) and adjusted to a count of 250×10^9/L. HEK293 cells stably expressing normal human αVβ3 or normal human αIIbβ3 are suspended in HBMT containing either 1 mM MgCl2 (HEK293 cells expressing αVβ3 for adhesion to vitronectin) or 2 mM CaCl2/1 mM MgCl2 (HEK293 cells expressing αIIbβ3 for adhesion to fibrinogen); the cell counts are adjusted to 10^6/mL. Polystyrene 96-well microtiter plates (Nunc) are coated with either fibrinogen (50 μg/mL), vitronectin (5 μg/mL), or collagen (33 μg/mL, rat tail type 1; Becton Dickinson) for 1 hour, and blocked with HBMT for at least 1 hour. Platelets and cells are treated with the compound of Example 27 of the current invention or 2-ethyl-7-(piperazin-1-yl)-5H-[1,3,4]thiadiazolo-[3,2-a]pyrimidin-5-one of U.S. Ser. No. 12/514,286 in the presence or absence of anti-α2β1 mAb 6F1, anti-αIIbβ3 mAb 10E5, anti-αIIbβ3 mAb 10E5+αVβ3 mAb 7E3, αVβ3-specific mAb LM609, or anti-αVβ3+αIIbβ3 mAb 7E3, for 15 minutes at 37° C. before being added to the microtiter wells. After adhering for 1 hour at either 22° C. (platelets) or 37° C. (cells), nonadherent platelets or cells are removed by washing 3 times with HBMT containing the same ion composition as the buffer used for adhesion. […] In other experiments, 8-chambered glass coverslips (Nunc) are coated with collagen (33 μg/mL) for 1 hour at 22° C. Washed platelets are allowed to adhere for 1 hour at 22° C. and the coverslips are stained with the Alexa-488-conjugated β3-specific mAb 7H2. Adherent platelets are imaged using a Zeiss LSM-510 confocal system with Axiovert 200 microscope (Carl Zeiss, Heidelberg, Germany) using a Plan-Apochromat 100/1.4 NA oil DIC objective.

platelets [2] = experiment: Platelet adhesion assay: calcein-labeled platelets on fibrinogen-coated wells; assay type: cell-based; conditions: Homo sapiens, mean±SD
Experimental: Thirty microliters of human fibrinogen (50 μg/mL) in Tris/saline (100 mM NaCl, 50 mM Tris/HCl, pH 7.4; American Diagnostica, Stamford, Conn.) are added to black, clear-bottom, untreated polystyrene, nonsterile 384-well microtiter plate wells (Corning no. 3711; Acton, Mass.). […] An additional wash is performed using HBMT with 1 mM MgCl2 and 2 mM CaCl2. Calcein-labeled platelets (final concentration 1×10^11/L) are treated with selected Compounds of the Invention (final concentration of 100 μM, 30 μM, 10 μM or 1 μM) at 22° C. for 20 minutes. Thirty microliters of platelets are then added to the wells. After 1 hour of adhesion, wells are washed 3 times with HBMT-1 mM MgCl2/2 mM CaCl2 and the plates are read by a fluorescent microtiter plate reader (Envision; Perkin Elmer) to detect calcein fluorescence (490 nm excitation and 515 nm emission). Negative controls consist of wells containing platelets without compounds of the invention.

washed platelets [3] = experiment: Effect of Mg2+ concentration on platelet adhesion to fibrinogen; assay type: cell-based, human; conditions: 1, 20, 50 mM Mg2+
Experimental: Washed platelets in buffers containing 1 mM Ca^2+ plus 1 mM, 20 mM, or 50 mM Mg^2+ are added to wells pre-coated with fibrinogen (50 μg/ml) for 60 min at 22° C. After washing, adherent platelets are detected by acid phosphatase activity. Results are expressed as mean±SD (n=3 for the compound of Example 27 of the current invention and 2-ethyl-7-(piperazin-1-yl)-5H-[1,3,4]thiadiazolo-[3,2-a]pyrimidin-5-one (a compound disclosed and claimed in U.S. Ser. No. 12/514,286); n=2 for tirofiban).

platelets [4] = experiment: Platelet aggregation assay: ADP-induced, platelet-rich plasma; assay type: cell-based, human; conditions: citrate anticoagulant, tested twice, read-out: IC50, ADP-induced platelet aggregation of citrated PRP
Experimental: […] After 30 seconds in the aggregometer (Kowa AF-10E; Tokyo, Japan) at 37° C. with stirring, ADP (5-20 μM) is added to induce aggregation and the light transmittance is measured for 8 minutes. The initial slopes of aggregation in the presence of different concentrations of the Compound being tested are used to generate an IC50.

[5] = target: T3, HEK293 cells stably expressing normal human αIIbβ3 (Homo sapiens, UniProt P05106+P08514); experiment: αIIbβ3-mediated cell adhesion to fibrinogen; assay type: cell-based; conditions: same concentration as αVβ3 experiments (100 μM), n=4
T3 construct: expressed in transfected cells; host or cells: HEK293
Experimental: Washed platelets are prepared as per the primary screening assay, suspended in HBMT containing 1 mM MgCl2 (platelet adhesion to collagen) or 2 mM CaCl2/1 mM MgCl2 (platelet adhesion to fibrinogen) and adjusted to a count of 250×10^9/L. HEK293 cells stably expressing normal human αVβ3 or normal human αIIbβ3 are suspended in HBMT containing either 1 mM MgCl2 (HEK293 cells expressing αVβ3 for adhesion to vitronectin) or 2 mM CaCl2/1 mM MgCl2 (HEK293 cells expressing αIIbβ3 for adhesion to fibrinogen); the cell counts are adjusted to 10^6/mL. Polystyrene 96-well microtiter plates (Nunc) are coated with either fibrinogen (50 μg/mL), vitronectin (5 μg/mL), or collagen (33 μg/mL, rat tail type 1; Becton Dickinson) for 1 hour, and blocked with HBMT for at least 1 hour. Platelets and cells are treated with the compound of Example 27 of the current invention or 2-ethyl-7-(piperazin-1-yl)-5H-[1,3,4]thiadiazolo-[3,2-a]pyrimidin-5-one of U.S. Ser. No. 12/514,286 in the presence or absence of anti-α2β1 mAb 6F1, anti-αIIbβ3 mAb 10E5, anti-αIIbβ3 mAb 10E5+αVβ3 mAb 7E3, αVβ3-specific mAb LM609, or anti-αVβ3+αIIbβ3 mAb 7E3, for 15 minutes at 37° C. before being added to the microtiter wells. After adhering for 1 hour at either 22° C. (platelets) or 37° C. […]

αIIbβ3 = target: T4, αIIbβ3 (Homo sapiens, UniProt P05106+P08514); experiment: Induction of ligand-induced binding site (LIBS) epitopes, flow cytometry of washed platelets; assay type: cell-based; conditions: eptifibatide 10 μM = 100%, Example 27 at 100 μM
T4 construct: Washed platelets are prepared in HBMT containing 2 mM CaCl2/1 mM MgCl2; endogenous in cells; host or cells: washed platelets
Experimental: Washed platelets are prepared in HBMT containing 2 mM CaCl2/1 mM MgCl2. […] Fluorescently labeled monoclonal antibodies (PMI-1, LIBS-1, AP5, or 10E5; Alexa-488 conjugated; Invitrogen) are then added (20 μL, final concentration: 5 μg/mL) and incubated for 30 minutes at 22° C. in the dark, after which samples are diluted 1:10 in HBMT with CaCl2/MgCl2 for analysis by flow cytometry (FACSCalibur; Becton Dickinson, Franklin Lakes, N.J.). Antibody binding is reported as the geometric mean fluorescence intensity; nonspecific binding is determined by adding a 50-fold excess of unlabeled antibody before adding the labeled antibody. The net normalized fluorescence intensity in the presence of eptifibatide (10 μM, 30 min incubation at 22° C.) is assigned the value of 100%

washed platelets [6] = experiment: Effect of Mg2+ on washed platelet aggregation induced by thrombin receptor activating peptide (SFLLRN); assay type: cell-based, human; conditions: compound at 100 μM; SFLLRN 10 μM
Experimental: Washed platelets are resuspended in buffer containing fibrinogen (200 μg/ml) and 1 mM […] in combination with either 1 mM or 20 mM Mg^2+. Aggregation is induced by adding a thrombin receptor activating peptide (SFLLRN) at 10 μM.

T1 sequence (P08514 32-887 limits assumed): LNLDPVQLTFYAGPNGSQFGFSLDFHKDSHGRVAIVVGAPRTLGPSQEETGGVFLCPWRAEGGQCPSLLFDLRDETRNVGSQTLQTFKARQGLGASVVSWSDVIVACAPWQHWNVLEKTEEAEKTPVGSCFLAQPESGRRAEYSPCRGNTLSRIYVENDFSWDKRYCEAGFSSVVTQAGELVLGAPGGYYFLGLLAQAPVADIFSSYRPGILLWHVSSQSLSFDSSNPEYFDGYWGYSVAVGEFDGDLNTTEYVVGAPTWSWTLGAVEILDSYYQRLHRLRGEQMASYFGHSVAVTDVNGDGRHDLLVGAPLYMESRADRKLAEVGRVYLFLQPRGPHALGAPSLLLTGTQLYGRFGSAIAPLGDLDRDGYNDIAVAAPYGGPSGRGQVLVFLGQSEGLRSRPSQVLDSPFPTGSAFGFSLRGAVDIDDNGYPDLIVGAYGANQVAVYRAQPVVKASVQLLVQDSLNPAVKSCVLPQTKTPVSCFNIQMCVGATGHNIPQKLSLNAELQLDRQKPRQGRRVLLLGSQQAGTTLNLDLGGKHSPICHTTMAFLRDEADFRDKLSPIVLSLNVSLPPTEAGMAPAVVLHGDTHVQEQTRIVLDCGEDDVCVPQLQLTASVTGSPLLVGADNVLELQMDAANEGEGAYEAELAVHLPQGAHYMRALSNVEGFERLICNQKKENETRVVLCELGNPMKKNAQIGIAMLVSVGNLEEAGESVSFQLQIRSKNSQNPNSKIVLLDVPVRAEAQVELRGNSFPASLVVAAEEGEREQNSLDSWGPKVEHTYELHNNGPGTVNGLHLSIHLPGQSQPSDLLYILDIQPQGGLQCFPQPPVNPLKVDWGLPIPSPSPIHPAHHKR
T1 sequence (P08514 891-1039 partner limits assumed): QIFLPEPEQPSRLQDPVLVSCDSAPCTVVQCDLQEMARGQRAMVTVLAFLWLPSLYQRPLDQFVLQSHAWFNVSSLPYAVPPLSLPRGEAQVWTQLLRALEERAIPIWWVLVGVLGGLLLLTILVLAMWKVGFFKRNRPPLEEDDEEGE
T1 sequence (P05106 27-788): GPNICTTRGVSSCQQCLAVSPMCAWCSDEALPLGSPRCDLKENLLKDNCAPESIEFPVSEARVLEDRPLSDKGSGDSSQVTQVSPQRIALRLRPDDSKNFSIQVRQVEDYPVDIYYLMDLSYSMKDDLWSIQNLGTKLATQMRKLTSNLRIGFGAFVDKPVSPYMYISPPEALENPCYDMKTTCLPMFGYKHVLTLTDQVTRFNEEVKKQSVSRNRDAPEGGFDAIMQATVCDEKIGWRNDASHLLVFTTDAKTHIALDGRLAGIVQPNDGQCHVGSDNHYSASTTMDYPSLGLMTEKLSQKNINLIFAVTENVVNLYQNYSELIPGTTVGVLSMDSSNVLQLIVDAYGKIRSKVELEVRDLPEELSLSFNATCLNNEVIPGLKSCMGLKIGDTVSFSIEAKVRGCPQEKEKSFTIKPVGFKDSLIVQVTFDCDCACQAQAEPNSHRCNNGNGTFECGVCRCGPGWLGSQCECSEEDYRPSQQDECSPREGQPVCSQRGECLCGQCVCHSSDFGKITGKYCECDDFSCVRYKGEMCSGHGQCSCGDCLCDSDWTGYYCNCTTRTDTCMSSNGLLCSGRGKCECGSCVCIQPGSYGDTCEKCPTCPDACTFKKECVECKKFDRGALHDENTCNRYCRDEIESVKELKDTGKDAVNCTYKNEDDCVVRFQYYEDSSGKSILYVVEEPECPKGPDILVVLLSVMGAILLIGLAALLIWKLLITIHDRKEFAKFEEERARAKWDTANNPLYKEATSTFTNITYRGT
T4 sequence (P08514 32-887 limits assumed): as the sequence (P08514 32-887 limits assumed) above
T4 sequence (P08514 891-1039 partner limits assumed): as the sequence (P08514 891-1039 partner limits assumed) above
T4 sequence (P05106 27-788): as the sequence (P05106 27-788) above
T2 sequence (P06756 31-889 limits assumed): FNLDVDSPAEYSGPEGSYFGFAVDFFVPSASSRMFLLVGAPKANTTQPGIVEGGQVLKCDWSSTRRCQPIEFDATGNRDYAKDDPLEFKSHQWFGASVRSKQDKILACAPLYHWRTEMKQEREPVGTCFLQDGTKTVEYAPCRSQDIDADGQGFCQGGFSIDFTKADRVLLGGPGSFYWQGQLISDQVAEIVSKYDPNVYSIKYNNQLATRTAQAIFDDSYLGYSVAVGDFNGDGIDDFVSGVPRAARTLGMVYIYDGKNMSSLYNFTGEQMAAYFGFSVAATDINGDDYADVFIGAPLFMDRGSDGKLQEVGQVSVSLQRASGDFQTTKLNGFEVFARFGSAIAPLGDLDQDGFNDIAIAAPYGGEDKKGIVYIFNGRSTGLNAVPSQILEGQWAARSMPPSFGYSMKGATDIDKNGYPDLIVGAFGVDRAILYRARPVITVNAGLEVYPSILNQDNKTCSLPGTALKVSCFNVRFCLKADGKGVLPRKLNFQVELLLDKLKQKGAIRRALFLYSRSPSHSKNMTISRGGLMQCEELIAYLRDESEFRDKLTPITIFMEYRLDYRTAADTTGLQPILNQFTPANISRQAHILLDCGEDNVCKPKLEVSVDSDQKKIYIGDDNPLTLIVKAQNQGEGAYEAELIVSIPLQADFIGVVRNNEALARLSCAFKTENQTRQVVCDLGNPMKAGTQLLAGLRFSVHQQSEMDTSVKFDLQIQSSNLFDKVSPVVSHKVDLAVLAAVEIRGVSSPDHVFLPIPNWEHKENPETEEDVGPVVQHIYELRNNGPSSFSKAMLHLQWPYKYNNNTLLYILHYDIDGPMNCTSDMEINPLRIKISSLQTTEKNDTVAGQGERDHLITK
T2 sequence (P06756 891-1048 partner limits assumed): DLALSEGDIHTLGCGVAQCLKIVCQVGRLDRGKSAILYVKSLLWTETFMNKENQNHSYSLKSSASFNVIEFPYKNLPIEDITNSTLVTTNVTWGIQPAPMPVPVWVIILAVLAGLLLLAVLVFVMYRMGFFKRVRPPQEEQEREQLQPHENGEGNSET
T2 sequence (P05106 27-788): as the sequence (P05106 27-788) above
T3 sequence (P08514 32-887 limits assumed): as the sequence (P08514 32-887 limits assumed) above
T3 sequence (P08514 891-1039 partner limits assumed): as the sequence (P08514 891-1039 partner limits assumed) above
T3 sequence (P05106 27-788): as the sequence (P05106 27-788) above

## N=C(N)NCCCC[C@@H]1NC(=O)CCSSC[C@@H](C(N)=O)NC(=O)[C@@H]2CCCN2C(=O)[C@H](Cc2c[nH]c3ccccc23)NC(=O)[C@H](CC(=O)O)NC(=O)CNC1=O [eptifibatide, reference compound] ([Mpa][hArg]GDWPC-NH2; disulfide 1-7)
Purified αIIbβ3
  shift of nanodisc-integrin length (NIL) frequency distribution: shift the distribution in a dose-dependent manner

## NCC(=O)Nc1cccc(-c2nn3c(=O)cc(N4CCNCC4)nc3s2)c1 [2-amino-N-(3-(5-oxo-7-(piperazin-1-yl)-5H-[1,3,4]thiadiazolo[3,2-a]pyrimidin-2-yl)phenyl)acetamide]
[1]; 10 μM
  inhibition at 10 µM: 6 ± 15%

## CCCCS(=O)(=O)N[C@@H](Cc1ccc(OCCCCC2CCNCC2)cc1)C(=O)O [tirofiban, reference compound]
Platelets [2]
  inhibition at 10 µM: 87 ± 9%
Purified αIIbβ3
  shift of nanodisc-integrin length (NIL) frequency distribution: shift the distribution in a dose-dependent manner
Washed platelets [3]
  increase in IC50 at higher Mg2+ concentrations comparable to that of Example 27: nor tirofiban shows a comparable increase in IC50

## CCc1nn2c(=O)cc(N3CCNCC3)nc2s1 [Example 1, 2-ethyl-7-(piperazin-1-yl)-5H-[1,3,4]thiadiazolo[3,2-a]pyrimidin-5-one]
Platelets [2]
  inhibition at 10 µM: 22 ± 8%
Platelets [2]; 30 μM, 5 separate experiments
  inhibition at 30 µM: 38 ± 10%
Platelets [2]; 100 μM, 5 separate experiments
  inhibition at 100 µM: 70 ± 15%
Platelets [4]; Homo sapiens, Platelet
  IC50: 12 µM
Platelets [4]
  IC50: 18 µM
[1]; 100 μM
  inhibition at 100 µM: 5 ± 7%
[5]
  inhibition at 100 µM: 55 ± 5%
αIIbβ3
  AP5 binding, % of the amount in the presence of eptifibatide: 10±4% and 10%
  LIBS1 binding after 30 min, % of the amount in the presence of eptifibatide: 18±2%
  PMI-1 binding, % of the amount bound by platelets treated with eptifibatide: 73±9%
Purified αIIbβ3; concentrations up to 100 μM
  shift of nanodisc-integrin length (NIL) values / receptor extension: do not induce receptor extension
Washed platelets [6]
  effect of Mg2+ on the inhibition of SFLLRN-induced platelet aggregation: much less evident
